# Assay results reported in patent publication US10254223B2, “Apparatus and methods for analysing fluorescent particles” (ChemoMetec A/S, priority 2008, dated 2019).
# Experiments:
# Format in all cases: cell-based
# [1] = tested on: Jurkat cells; assay: Annexin V apoptosis assay (AF594-annexin V, DACM, SYTOX green) with the claimed apparatus; conditions: 1 μM nocodazole, 16 hours; for annexin V positive cells (apoptotic cells): viable cells, nonviable cells gated out by SYTOX green
# Protocol: Here the claimed apparatus is used in assaying fluorescently labelled annexin V to stain apoptotic and necrotic cells and SYTOX green to distinguish between the early and late apoptotic/necrotic cells. In addition DACM is used to stain all viable cells. Jurkat cells were cultivated at 37° C. in a humidified air atmosphere with 5% CO2 in RPMI (Invitrogen, Cat. No. 61870) supplemented with 10% heat-inactivated fetal bovine serum (Invitrogen, Cat. No. 10108-165). Cells were either treated with 1 μM nocodazole (Sigma, Cat. No. M1404) or left untreated. After 16 hours incubation (37° C., 5% CO2) cells were harvested in cold phosphate-buffered saline (PBS) and stained with AlexaFluor 594-labelled annexin V (Molecular probes, A-13203) according to the manufacturer's protocol. After annexin V staining all viable cells were co-stained using DACM (N-(7-dimethylamino-4-methyl-3-coumarinyl)-maleimide, WAKO Pure Chemical Industries, CAS no. 55145-14-7) and nonviable cells were stained with SYTOX green (Invitrogen, S7020). The stained cells were loaded into a NC-Slide. The NC-Slide was placed in the claimed apparatus and the cells were counted and investigated using the claimed apparatus and in-house developed software. The cells were also investigated using an Olympus IX50 fluorescent microscope. SYTOX green fluorescence was detected using a U-MWIBA3 (blue bandpass) filter cube (Olympus), the annexin V AF594 conjugate was detected using a U-MWG2 (green longpass) filter cube (Olympus) and DACM was detected using the U-MNUA2 (UV band pass) filter cube (Olympus).
# [2] = tested on: CHO cells; assay: Caspase based assay (SR-VAD-FMK poly-caspase FLICA, DACM, SYTOX green); conditions: 1 μM nocodazole, 16 hours
# Text: Another caspase based apoptosis assay is the FLICAssay (Fluorochrome Inhibitor of Caspases Assay). This assay detects active caspases inside the cell using a caspase specific inhibitor sequence linked to a fluorescent probe. The non-cytotoxic caspase specific inhibitor is cell permeant and passes through the intact plasma membrane and covalently binds to the reactive cysteine residue on the large subunit of the active caspase heterodimer. […] Measuring the fluorescence thus gives a direct measure of the amount of active caspase in the whole living cell.
# To quantify caspase activity by the FLICAssay, the cells to be investigated are incubated with the chosen caspase specific inhibitor sequence linked to a fluorescent probe. Cells are washed to remove unbound inhibitor and the fluorescence of the cells is determined using the claimed apparatus thereby making measurement of caspase activity on the single cell level possible. […]
# CHO cells were cultivated in RPMI (Invitrogen, Cat. No. 61870) supplemented with 10% heat-inactivated fetal bovine serum (Invitrogen, Cat. No. 10108-165) at 37° C. in a humidified air atmosphere with 5% CO2. […] The NC-Slide was placed in the claimed apparatus and the cells were counted and investigated using the claimed apparatus and in-house developed software. […]
# [3] = tested on: Jurkat cells; assay: Early apoptosis by mitochondrial membrane potential (JC-1 and DAPI staining); conditions: 10 μM campthotecin, 5 hours at 37° C.
# Text: Loss of the mitochondrial membrane potential is known to precede apoptosis and chemical-hypoxia-induced necrosis. The lipophilic cationic dye JC-1 (5,5,6,6-tetrachloro-1,1,3,3-tetraethylbenzimidazol-carbocyanine iodide) display potential-dependent accumulation in the mitochondria and provides a simple, fluorescent-based method for distinguishing between healthy and apoptotic cells. In healthy cells, the negative charge established by the intact mitochondrial membrane potential facilitates the accumulation of JC-1 in the mitochondrial matrix. At high concentrations JC-1 forms aggregates and become red fluorescent. In apoptotic cells the mitochondrial potential collapses and JC-1 localizes to the cytosol in its monomeric green fluorescent form. A cell impermeable DNA stain (like DAPI) can be included to stain necrotic and late apoptotic cells. Jurkat cells were grown in RPMI+10% FCS to a density of 5.0×10^5 cells/ml and treated with 10 μM campthotecin (apoptosis inducing drug) for 5 hours. Cells were stained with 2.5 μg/ml JC-1 for 10 minutes at 37° C., washed with PBS, resuspended in PBS+1 μg/ml DAPI and analysed using the claimed apparatus.
# [4] = tested on: Jurkat (JM) cells; assay: Annexin V apoptosis assay (AlexaFluor 488-Annexin V, PI) with the claimed apparatus; conditions: 3 μM Camptothecin, three hours incubation
# Protocol: Here the claimed apparatus is used in assay fluorescently labeled Annexin V to stain apoptotic and necrotic cells and PI to distinguish between the early and late apoptotic/necrotic cells. Jurkat (JM) cells were cultivated at 37° C. in a humidified air atmosphere with 5% CO2 in RPMI (Invitrogen, Cat. No. 61870) supplemented with 10% heat-inactivated fetal bovine serum (Invitrogen, Cat. No. 10108-165). 3 μM Camptothecin (Sigma, Cat. No. C-9911) was added to the cells in order to induce apoptosis. After three hours incubation (37° C., 5% CO2) cells were harvested in cold phosphate-buffered saline (PBS) and stained with AlexaFluor 488-labelled Annexin V from the Vybrant® Apoptosis Assay Kit #2 (Molecular probes, V13241) according to the manufacturer's protocol. The stained cells were loaded into a cassette containing propidium iodide. The cassette was placed in the claimed apparatus and the cells were counted and investigated using the claimed apparatus and in-house developed software. The cells were also investigated using an Olympus IX50 fluorescent microscope. Images were captured using a Lumenera CCD camera and in-house developed software. AF488 fluorescence was detected using a U-MWIBA3 (blue bandpass) filter cube (Olympus) and PI fluorescence was detected using a U-MWG2 (green longpass) filter cube (Olympus).
compound,measurement,setting,value
COC(=O)Nc1nc2ccc(C(=O)c3cccs3)cc2[nH]1 [nocodazole],viability,[1],almost not affected
same,annexin V positive cells (apoptotic cells),[1],more than 40%
same,annexin V positive cells (apoptotic cells),[1]; listed as Nocodazole,~40%
same,"cells exhibiting strong red fluorescence (caspase activity, apoptotic cells) versus untreated cells",[2],Substantially more
CC[C@@]1(O)C(=O)OCc2c1cc1n(c2=O)Cc2cc3ccccc3nc2-1 [Camptothecin],depolarized/apoptotic cells (JC-1),[3],60%
same,viability (DAPI positive cells counted),[3],approximately 96%
same,concentration of apoptotic cells (Annexin V conjugate binding cells),[4],2.6×10^5
same,concentration of non-viable cells (PI),[4],4.5×10^4
